Laboratory results taken from patent US20040063643A1, “Bombesin antagonists” (Pfizer Inc., priority 2002, published 2004).

Experiments:
[1] = target: T1, human bombesin BB1 receptors (Homo sapiens, UniProt P28336); assay: Bombesin BB1 receptor binding assay, [125I][6-14]Bombesin, CHO cell membranes; details: membranes from CHO cells expressing human BB1
T1 construct: expressed in transfected cells; host or cells: CHO cells
Method: The compounds of the present invention are a potent class of bombesin antagonists. Bombesin antagonism may be measured using the following binding assay using membranes from CHO cells expressing the human bombesin BB1 receptors.
Cells are maintained in Ham's F12 medium (Life Technologies Ltd, Cat No. 31765-027) supplemented with 10% FBS (Life Tech. Ltd., 10109-155) and 2 mM glutamine (or Glutamax in media). Cells are routinely passaged once weekly (split 1:5, approximate seeding density=1-4 million per […] flask), and fed every 2 days with fresh medium. Cells are frozen down (in Hams F12 containing 5% DMSO) 4-7 days after passaging and stored at −70° C. until required for use in binding experiments.
Frozen cells rapidly thawed and diluted with excess medium (each aliquot made up to 40 ml).
Cells harvested by centrifuging at 3000 g for 4 min at 21° C.
Cells resuspended in known volume of assay buffer, and cell count performed.
Membranes prepared by polytronning (setting 5, 10 secs). […]
(§1) For each assay plate, total (1% DMSO) and non-specific (1 μM, 1% DMSO), binding will be measured for the ligand on the receptor. Specific binding of the radioactive ligand to the receptor can thus be calculated to which specific binding of the radioactive ligand in the presence of a competing compound can be calculated and expressed as percentage inhibition of radioactive ligand binding.

BB2 = BB2 (Homo sapiens, UniProt P30550); assay: Bombesin BB2 receptor binding assay
Chain of BB2 (P30550 whole entry): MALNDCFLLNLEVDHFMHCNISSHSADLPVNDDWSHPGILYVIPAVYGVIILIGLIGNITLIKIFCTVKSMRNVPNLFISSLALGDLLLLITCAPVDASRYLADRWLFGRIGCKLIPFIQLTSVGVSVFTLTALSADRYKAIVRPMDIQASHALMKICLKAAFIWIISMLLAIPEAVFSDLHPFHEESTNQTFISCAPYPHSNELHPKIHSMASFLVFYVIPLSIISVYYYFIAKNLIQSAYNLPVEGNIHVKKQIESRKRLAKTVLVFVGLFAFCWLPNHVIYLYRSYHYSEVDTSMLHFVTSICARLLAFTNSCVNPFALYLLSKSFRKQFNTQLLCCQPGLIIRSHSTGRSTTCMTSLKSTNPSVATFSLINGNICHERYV
Method: Drug dilutions are performed using the Tecan Genesis/Miniprep handling stations. Assays are set up as follows
25 μl test compound/total/NSB
200 μl cell memb preparation
Assay additions using deep well Multidrop.
Non-specific binding is defined by 1 μM Bombesin 1% DMSO (final concentration).
1. Add membranes to start incubation. Vortex and incubate at 21° C. GRP assay=90 min; NMB assay=60 min.
2. Terminate reactions by rapid filtration onto GF\C filters or GF\C Unifilter plates presoaked in 0.2% PEI for >1 hour) using the appropriate Brandel cell harvester.
3. Wash with ice-cold HEPES HCl (50 mM, pH 7.4 at 21° C.).
Filter mats 6×1 ml total wash volume
Unifilter plates 2×1 ml total wash volume
4. Unifilters are dried at 50° C. for 60 minutes. Add 50 μl Microscint-0, Seal plates with Top-Seal A and count using TopCount NXT.
as §1

T1 sequence (P28336 whole entry): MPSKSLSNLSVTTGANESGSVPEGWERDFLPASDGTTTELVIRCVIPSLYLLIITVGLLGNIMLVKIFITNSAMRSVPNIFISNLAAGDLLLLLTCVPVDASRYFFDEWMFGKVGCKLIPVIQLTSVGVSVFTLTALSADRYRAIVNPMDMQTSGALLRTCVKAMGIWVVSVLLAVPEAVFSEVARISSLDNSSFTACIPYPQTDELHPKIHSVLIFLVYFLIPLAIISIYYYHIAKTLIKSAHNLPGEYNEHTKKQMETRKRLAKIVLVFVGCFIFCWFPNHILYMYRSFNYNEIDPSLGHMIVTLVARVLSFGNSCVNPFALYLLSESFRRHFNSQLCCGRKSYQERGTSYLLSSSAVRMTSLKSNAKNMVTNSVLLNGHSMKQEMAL

SMILES	Ki [1] [nM]	Ki (BB2) [nM]	melting point [°C]
O=C(NCc1cccc(Cl)c1Cl)N(Cc1ccc(O)cc1)CC1(c2ccccn2)CCCCC1 [Example 1, 3-(2,3-Dichloro-benzyl)-1-(4-hydroxy-benzyl)-1-(1-pyridin-2-yl-cyclohexylmethyl)-urea]	82	3590	
CC(C)c1cccc(C(C)C)c1NC(=O)N(Cc1ccccc1)CC1(c2nnnn2C)CCCCC1 [Example 180, 1-Benzyl-3-(2,6-diisopropyl-phenyl)-1-[1-(1-methyl-1H-tetrazol-5-yl)-cyclohexylmethyl]-urea]			150 to 152
CC(C)c1cccc(C(C)C)c1NC(=O)N(Cc1ccccc1)CC1(c2ncccn2)CCCCC1 [Example 181, 1-Benzyl-3-(2,6-diisopropyl-phenyl)-1-(1-pyrimidin-2-yl-cyclohexylmethyl)-urea]			112.5 to 113.5
Cc1cccc(CNC(=O)N(CC2CC2)CC2(c3ccccn3)CCCCC2)c1C [Example 184, 1-Cyclopropylmethyl-3-(2,3-dimethyl-benzyl)-1-(1-pyridin-2-yl-cyclohexylmethyl)-urea]			102 to 103
